Legend:
[1] = molecular target: T1, Muscarinic acetylcholine receptor M1 (Homo sapiens, UniProt P11229); experiment: Displacement of [3H]NMS from human muscarinic M1 receptor expressed in CHO-K1 cells after 1 hr by scintillation counting; assay type: cell-based
T1 sequence (P11229 whole entry): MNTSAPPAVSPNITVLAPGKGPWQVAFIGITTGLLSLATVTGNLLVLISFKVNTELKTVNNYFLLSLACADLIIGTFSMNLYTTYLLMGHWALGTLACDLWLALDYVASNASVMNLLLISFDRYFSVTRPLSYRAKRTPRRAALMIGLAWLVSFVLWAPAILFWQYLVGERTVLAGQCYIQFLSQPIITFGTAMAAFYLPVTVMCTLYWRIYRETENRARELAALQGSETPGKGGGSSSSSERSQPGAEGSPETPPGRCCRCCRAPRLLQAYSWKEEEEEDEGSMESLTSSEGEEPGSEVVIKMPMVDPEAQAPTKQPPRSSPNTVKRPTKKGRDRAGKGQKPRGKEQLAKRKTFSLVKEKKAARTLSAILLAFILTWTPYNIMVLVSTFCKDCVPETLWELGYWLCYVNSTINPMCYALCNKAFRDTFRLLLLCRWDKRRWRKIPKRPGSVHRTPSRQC

[2] = molecular target: Muscarinic acetylcholine receptor M1 and M3 (Homo sapiens) (UniProt P20309+P11229); experiment: Selectivity ratio of IC50 for human muscarinic M1 receptor to IC50 for human muscarinic M3 receptor
[3] = molecular target: Muscarinic acetylcholine receptors; M2 & M3 (Homo sapiens) (UniProt P20309+P08172); experiment: Selectivity ratio of IC50 for human muscarinic M2 receptor to IC50 for human muscarinic M3 receptor
[4] = molecular target: T2, Muscarinic acetylcholine receptor M2 (Homo sapiens, UniProt P08172); experiment: Displacement of [3H]NMS from human muscarinic M2 receptor expressed in CHO-K1 cells after 1 hr by scintillation counting; assay type: cell-based
T2 sequence (P08172 whole entry): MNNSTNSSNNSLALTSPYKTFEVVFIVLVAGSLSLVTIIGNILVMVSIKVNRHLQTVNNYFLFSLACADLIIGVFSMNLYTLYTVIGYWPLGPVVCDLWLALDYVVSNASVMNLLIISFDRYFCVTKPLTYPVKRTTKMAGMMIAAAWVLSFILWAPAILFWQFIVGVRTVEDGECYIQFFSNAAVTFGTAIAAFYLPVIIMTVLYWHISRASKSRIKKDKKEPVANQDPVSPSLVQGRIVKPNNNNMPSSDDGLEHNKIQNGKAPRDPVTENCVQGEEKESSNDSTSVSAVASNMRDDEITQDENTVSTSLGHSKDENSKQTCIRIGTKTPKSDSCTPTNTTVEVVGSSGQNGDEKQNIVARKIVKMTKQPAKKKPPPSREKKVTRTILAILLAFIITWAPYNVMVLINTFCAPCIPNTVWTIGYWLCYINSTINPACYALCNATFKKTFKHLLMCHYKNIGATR

Cavia porcellus = experiment: Inhibition of acetylcholine-induced bronchospasm in anesthetized Dunkin-Hartley guinea pig assessed as time required to recover 50% of maximum inhibitory effect at 1 mg/ml administered via nebulizer; assay type: functional
[5] = molecular target: Muscarinic acetylcholine receptor M3 (Homo sapiens, UniProt P20309); experiment: Displacement of [3H]NMS from human muscarinic M3 receptor expressed in CHO-K1 cells after 1 hr by scintillation counting; assay type: cell-based
Chain of Muscarinic acetylcholine receptor M3 (P20309 whole entry): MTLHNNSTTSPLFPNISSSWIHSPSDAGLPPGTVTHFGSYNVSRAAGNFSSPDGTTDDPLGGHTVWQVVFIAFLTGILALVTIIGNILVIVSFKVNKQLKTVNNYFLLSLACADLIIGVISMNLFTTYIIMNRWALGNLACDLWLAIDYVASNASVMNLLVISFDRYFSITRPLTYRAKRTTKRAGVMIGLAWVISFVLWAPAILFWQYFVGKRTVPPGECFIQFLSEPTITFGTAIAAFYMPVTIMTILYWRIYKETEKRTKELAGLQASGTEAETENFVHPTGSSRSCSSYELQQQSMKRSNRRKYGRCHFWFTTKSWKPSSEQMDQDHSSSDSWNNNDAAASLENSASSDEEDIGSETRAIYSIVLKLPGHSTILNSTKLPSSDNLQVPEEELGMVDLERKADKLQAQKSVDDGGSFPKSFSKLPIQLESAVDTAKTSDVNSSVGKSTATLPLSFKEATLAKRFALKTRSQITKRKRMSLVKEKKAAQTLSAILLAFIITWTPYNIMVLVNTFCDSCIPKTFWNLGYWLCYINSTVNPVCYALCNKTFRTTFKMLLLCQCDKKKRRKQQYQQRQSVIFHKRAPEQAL

Chain of Muscarinic acetylcholine receptor M1 and M3 (Homo sapiens) (P20309 whole entry, looked up, one chain of several): as the sequence (P20309 whole entry) above
Chain of Muscarinic acetylcholine receptors; M2 & M3 (Homo sapiens) (P20309 whole entry, looked up, one chain of several): as the sequence (P20309 whole entry) above

SMILES | IC50 [1] [nM] | Ratio IC50 [2] | Ratio IC50 [3] | IC50 [4] [nM] | Time (Cavia porcellus) [h] | IC50 [5] [nM]
O=C(O[C@H]1C[N+]2(CCOc3ccccc3)CCC1CC2)N(Cc1ccccc1)c1ccccc1.[Br-] | 1.7 | 1.7 | 3.9 | 3.9 | >6 | 1
CCCCN(C(=O)O[C@H]1C[N+]2(CCOc3ccccc3)CCC1CC2)c1ccccc1.[Br-] | 1.4 | 1.7 | 11.1 | 8.9 | >6 | 0.8
O=C(O[C@H]1C[N+]2(CCOc3ccccc3)CCC1CC2)N(Cc1ccsc1)c1ccccc1.[Br-] | 0.4 | 2 | 8 | 1.6 | >6 | 0.2
O=C(O[C@H]1C[N+]2(CCOc3ccccc3)CCC1CC2)N(Cc1cccs1)c1ccccc1.[Br-] | 0.4 | 1.3 | 3.7 | 1.1 | >6 | 0.3
Cc1ccc(N(Cc2ccccc2)C(=O)O[C@H]2CN3CCC2CC3)cc1 | 39.7 | 0.5 | 2.6 | 196 |  | 74.7
O=C(O[C@H]1CN2CCC1CC2)N(c1ccccc1)c1ccccc1 | 319 | 0.4 | 3.5 | 2780 |  | 797
O=C(O[C@H]1CN2CCC1CC2)N1CCc2ccccc2[C@@H]1c1ccccc1 [SOLIFENACIN SUCCINATE] | 63.5 | 0.5 | 4.4 | 574 |  | 131
O=C(O[C@H]1CN2CCC1CC2)N(Cc1cccs1)Cc1cccs1 | 2.4 | 0.4 | 3.8 | 22.7 |  | 5.9
Cc1cccc(N(Cc2cc(F)c(F)cc2F)C(=O)O[C@H]2C[N+]3(CCCc4ccccc4)CCC2CC3)c1.[Br-] | 3 | 3.3 | 33.1 | 29.8 | <6 | 0.9
C[N+]12CCC(CC1)[C@@H](OC(=O)N(Cc1cccs1)c1ccccc1)C2 | 9.2 | 0.5 | 1.8 | 33.1 |  | 18.6
CCCCN(C(=O)O[C@H]1CN2CCC1CC2)c1ccccc1 | 1.1 | 0.2 | 5.3 | 22.9 | <1 | 4.3
CCCN(C(=O)O[C@H]1CN2CCC1CC2)c1ccccc1 | 26.7 | 0.4 | 4.9 | 349 |  | 71.1
CC(C)N(C(=O)O[C@H]1CN2CCC1CC2)c1ccccc1 | 428 | 0.6 | 2.1 | 1360 |  | 659
O=C(O[C@H]1C[N+]2(CCc3ccccc3)CCC1CC2)N(Cc1ccccc1)c1ccccc1.[Br-] | 15.1 | 0.85 | 2.9 | 50.9 | <2 | 17.7
CCCCN(C(=O)O[C@H]1C[N+]2(CCc3ccccc3)CCC1CC2)c1ccccc1 | 33.3 | 1.7 | 6.3 | 121 |  | 19
Cc1cccc(N(Cc2cc(F)c(F)cc2F)C(=O)O[C@H]2CN3CCC2CC3)c1 | 1 | 0.7 | 32.7 | 45.8 |  | 1.4
CCCCN(C(=O)O[C@H]1C[N+]2(CCCc3ccccc3)CCC1CC2)c1ccccc1 | 2.5 | 3.1 | 22.1 | 17.7 |  | 0.8
